Assay results taken from US20040023951A1, “Combination therapy for treatment of psychoses” (priority 2002, published 2004).
Where “and” joins values, the source holds several entries; their conditions need not be identical. Equal values may be shown once.

Tested on: Rats
Assay: Conditioned avoidance behavior in rats
Format: in vivo, rat
Source text: Conditioned Avoidance Behavior in Rats:
In a conditioned avoidance test, animals learn to respond during a conditioned stimulus in order to avoid mild shock presentation. A response during the conditioned stimulus is termed an avoidance response, a response during shock is termed an escape response; a response failure is when the animal fails to respond during either the conditioned stimulus or the shock presentation and is indicative of motor impairment. […] Antipsychotic drugs decrease the percentage of avoidance responses without interfering with the ability of the animal to respond since the animals do emit escape responses. The percentage of response failures is considered a measure of motor impairment.
Rats were required to press a response lever in an experimental chamber in order to avoid or escape foot-shock. Each experimental session consisted of 50 trials. During each trial, the chamber was illuminated and a tone presented for a maximum of 10 sec. A response during the tone immediately terminated the tone and the houselight, ending the trial. In the absence of a response during the tone alone, tone+foot-shock (2.0 mA) was presented for a maximum of 10 sec. A response during shock presentation immediately terminated the shock, the tone and the houselights ending the trial.
If the effects are simply additive the results will be additive. If the effects of are synergistic, then the dose of second component required to produce full efficacy will be decreased.

[1] = first component dose 0.16 in combination with Xanomeline dose 10
[2] = first component dose 0.32 in combination with Xanomeline dose 10
[3] = first component dose 0.625 in combination with Xanomeline dose 10
[4] = first component dose 1.25 in combination with Xanomeline dose 10
[5] = first component dose 2.5 in combination with Xanomeline dose 10
[6] = first component dose 0.01 in combination with Xanomeline dose 10
[7] = first component dose 0.03 in combination with Xanomeline dose 10
[8] = first component dose 0.1 in combination with Xanomeline dose 10
[9] = first component dose 0.3 in combination with Xanomeline dose 10
[10] = first component dose 0.001 in combination with Xanomeline dose 10
[11] = first component dose 0.003 in combination with Xanomeline dose 10
[12] = given alone, dose 0.03 (dose unit not given)
[13] = Xanomeline dose 10 with first component dose 0 (combination series)

Structure (SMILES)	% Response Failures ± SEM (given alone, dose 10)	% Response Failures ± SEM [6] [%]	% Response Failures ± SEM [7] [%]	% Response Failures ± SEM (given alone, dose 0.1) [%]	% Response Failures ± SEM (given alone, dose 0.3) [%]	% Response Failures ± SEM (given alone, dose 1) [%]	% Avoidance Responses ± SEM (given alone, dose 10)	% Avoidance Responses ± SEM [6] [%]	% Avoidance Responses ± SEM [7] [%]	% Avoidance Responses ± SEM [8] [%]	% Avoidance Responses ± SEM [9] [%]	% Avoidance Responses ± SEM (given alone, dose 0.1) [%]	% Avoidance Responses ± SEM (given alone, dose 0.3) [%]	% Avoidance Responses ± SEM (given alone, dose 1)	% Avoidance Responses ± SEM [10] [%]	% Avoidance Responses ± SEM [11] [%]	% Avoidance Responses ± SEM [12] [%]	% Avoidance Responses ± SEM (given alone, dose 3)	further results
CN(C)CCCN1c2ccccc2Sc2ccc(Cl)cc21 [Chlorpromazine]	16 ± 8%						10 ± 4%												% Avoidance Responses ± SEM [1]: 56 ± 11%; % Response Failures ± SEM [1]: 1 ± 1%; % Avoidance Responses ± SEM [2]: 46 ± 22%; % Response Failures ± SEM [2]: 19 ± 19%; % Avoidance Responses ± SEM [3]: 30 ± 17%; % Response Failures ± SEM [3]: 0 ± 0%; % Avoidance Responses ± SEM [4]: 20 ± 10%; % Response Failures ± SEM [4]: 8 ± 7%; % Avoidance Responses ± SEM [5]: 22 ± 7%; % Response Failures ± SEM [5]: 1 ± 0%; % Avoidance Responses ± SEM (given alone, dose 1.25): 99 ± 1%; % Response Failures ± SEM (given alone, dose 1.25): 0 ± 0%; % Avoidance Responses ± SEM (given alone, dose 2.5): 96 ± 4%; % Response Failures ± SEM (given alone, dose 2.5): 0 ± 0%; % Avoidance Responses ± SEM (given alone, dose 5): 27 ± 12%; % Response Failures ± SEM (given alone, dose 5): 7 ± 5%
Cc1cc2c(s1)Nc1ccccc1N=C2N1CCN(C)CC1 [Olanzapine, 2-methyl-4-(4-methyl-1-piperazinyl)-10H-thieno[2,3-b][1,5]benzodiazepine]							2 ± 1%	66 ± 11	47 ± 12	56 ± 6	53 ± 14			98 ± 1%				59 ± 16%	% Avoidance Responses ± SEM (first component dose 1.0 in combination with Xanomeline dose 10): 9 ± 6%
Cc1nc2n(c(=O)c1CCN1CCC(c3noc4cc(F)ccc34)CC1)CCCC2 [Risperidone, 3-[2-[4-(6-fluoro-1,2-benzisoxazol-3-yl)piperidino]ethyl]-2-methyl-6,7,8,9-tetrahydro-4H-pyrido[1,2-a]pyrimidin-4-one]								23 ± 14	8 ± 2			91 ± 5	37 ± 11	2 ± 1%	48 ± 8	48 ± 16	100 ± 0		

More lines, main results first:

% Response Failures ± SEM (given alone, dose 10)	% Response Failures ± SEM [6] [%]	% Response Failures ± SEM [7] [%]	% Response Failures ± SEM (given alone, dose 0.1) [%]	% Response Failures ± SEM (given alone, dose 0.3) [%]	% Response Failures ± SEM (given alone, dose 1) [%]	Structure (SMILES)	% Avoidance Responses ± SEM (given alone, dose 10)	% Avoidance Responses ± SEM [6] [%]	% Avoidance Responses ± SEM [7] [%]	% Avoidance Responses ± SEM [8] [%]	% Avoidance Responses ± SEM [9] [%]	% Avoidance Responses ± SEM (given alone, dose 0.1) [%]	% Avoidance Responses ± SEM (given alone, dose 0.3) [%]	% Avoidance Responses ± SEM (given alone, dose 1)	% Avoidance Responses ± SEM [10] [%]	% Avoidance Responses ± SEM [11] [%]	% Avoidance Responses ± SEM [12] [%]	% Avoidance Responses ± SEM (given alone, dose 3)	further results
	1 ± 0	3 ± 2	0 ± 0	2 ± 1	28 ± 9	OCCN1CCN(CCCN2c3ccccc3Sc3ccc(C(F)(F)F)cc32)CC1 [Fluphenazine]		77 ± 12	52 ± 12	66 ± 11	33 ± 16	100 ± 0	67 ± 9	33 ± 6%					% Response Failures ± SEM [8]: 0 ± 0%; % Response Failures ± SEM [9]: 6 ± 6%
	1 ± 0	8 ± 6	2 ± 1	25 ± 12		O=C(CCCN1CCC(O)(c2ccc(Cl)cc2)CC1)c1ccc(F)cc1 [Haloperidol]		57 ± 6	27 ± 8			59.0 ± 13.0	10.0 ± 2.0		70 ± 12	45 ± 13	98.0 ± 1.0		% Response Failures ± SEM [10]: 5 ± 3%; % Response Failures ± SEM [11]: 14 ± 11%; % Response Failures ± SEM (given alone, dose 0.03 (dose unit not given), measure of motor impairment): 1 ± 0%
2 ± 1% and 1 ± 0%					0 ± 0	CCCCCCOc1nsnc1C1=CCCN(C)C1 [Xanomeline, 3-(4-hexyloxy-1,2,5-thiadiazol-3-yl)-1,2,5,6-tetrahydro-1-methylpyridine]	44 ± 18% and 78 ± 12% and 63 ± 18%							98 ± 2% and 99 ± 0%				93 ± 3% and 99 ± 1%	% Avoidance Responses ± SEM [13]: 87 ± 9% and 56 ± 13% and 72 ± 13%; % Response Failures ± SEM [13]: 0 ± 0%; % Response Failures ± SEM (given alone, dose 3): 0 ± 0%; % Avoidance Responses ± SEM (given alone, dose 17.5): 11 ± 4%; % Response Failures ± SEM (given alone, dose 17.5): 2 ± 1%
